Measured values as given in patent US20160243023A1, “Novel Skin Remodeling Strategy” (ELC MANAGEMENT LLC, priority 2015, published 2016).

Tests used:
[1] = system: human dermal fibroblasts (HDFs); assay: Glycated collagen phagocytosis by HDFs (Phagocytosis Index); format: cell-based; settings: beads pre-treated overnight with methylglyoxal; 3 hours incubation with HDFs
Description: • 1. On day 1, HDFs were plated in 24 well plates. • 2. On day 2, HDFs, after reaching confluence, were maintained for 48 hours under starvation conditions. • 3. On day 4, HDFs were incubated for 3 hours with collagen-coated microspheres (2×10^6 beads) as control or with collagen-coated microspheres (2×10^6 beads) that had been pre-treated overnight with glycation inducer, methylglyoxal. HDFs were then washed with PBS to remove unbound and loosely bound beads. • 4. Cell viability was measured using Presto Blue reagent; phagocytosis was measured by the determination of the fluorescence reading of internalized beads, using the procedure described above in Example 1. Results, shown in FIG. 11, are expressed as Phagocytosis Index (i.e., the ratio of the phagocytosis fluorescent signal divided by the viability signal).

[2] = system: human dermal fibroblasts (HDFs); assay: TGFβ1-induced collagen synthesis in HDF after pretreatment with inducers of collagen phagocytosis (PIP EIA); format: cell-based; settings: TGFβ1 used alone at 0.25 ng/ml, 72 hours
Description: • 1. On day 1, HDFs were plated in 96 well plates. • 2. On day 2, HDFs, after reaching confluence, were treated with medium (control) or with actives (test materials previously found by the inventors to be phagocytosis enhancers*; data not shown) under starvation conditions for 48 hours (step 1). • 3. On day 4, the actives were removed and the cells were treated with medium or with a collagen inducer, 0.25 ng/ml TGFβ1 in medium, for 72 hours (step 2). • 4. On day 7, medium was collected and analyzed for collagen release using a PIP EIA. The amount of PIP (pro-collagen ng/ml medium) is quantitated by measuring the absorbance using an EIA plate reader. Accurate sample concentrations of PIP can be determined by comparing the specific absorbances to a standard curve. Cell viability also was assessed using a standard 3-(4,5-dimethylthiazol-2-yl)-2,5-diphenyltetrazoliumbromide (MTT) assay. The assay involves the conversion of the water soluble MTT, a yellow tetrazole, to an insoluble purple formazan in living cells. The formazan is then solubilized and the concentration determined by measuring the absorbance at a wavelength of from about 500-600 nm using a spectrophotometer. […]

CC(=O)C=O [methylglyoxal]
uptake by HDFs of pre-treated collagen-coated beads versus beads coated with unmodified collagen (Phagocytosis Index) [1]: substantially the same rate

TGFβ1: Transforming Growth Factor Beta 1, collagen inducer
increase in collagen synthesis compared with the non-treated control [2]: 30%
